Where a name gives a salt, the structure may show the parent alone. Read-outs that look alike come from different tables or passages of the source.
How the values were obtained:
[1] = test system: axenic amastigotes of L. donovani, strain MHOM-ET-67/L82; assay: In vitro activity against L. donovani axenic amastigotes, serial drug dilution assay; assay type: cell-based, Leishmania donovani
Method: (§1) Drug stock solutions (10mg/ml) were in DMSO (100%). […] Selectivity index (SI) was calculated as IC50 L6 cells/IC50 parasite.

[2] = test system: T. cruzi, strain Tulahuen C4, intracellular amastigotes; assay: microbe, parasite or virus in culture
Method: as §1

in vitro = details: rat
Method: as §1

[3] = test system: T. b. rhodesiense strain STIB 900, trypomastigotes; assay: In vitro activity against T. b. rhodesiense, serial drug dilution assay; details: for Activity against T. b. rhodesiense (in words): in vitro; for selectivity ratio: rat
Method: as §1

[4] = Cytotoxicity on macrophages infected with L. donovani; assay type: cell-based, mouse; details: mouse
[5] = test system: macrophages infected with L. donovani; assay: as above; assay type: cell-based, mouse; details: macrophages infected with L. donovani; read-out: IC50 Cytotox. mac.inf.
[6] = test system: L. donovani strain MHOM-ET-67/L82 amastigotes; assay: in vitro; details: mouse, Selectivity index: IC50 Cytotoxicity macrophages/ IC50 L. donovani
Summary of the method: (§2)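 Axenic amastigotes grown at pH 5.4 infected mouse peritoneal macrophages for 4 h before free parasites were washed off. Next day, seven 3-fold drug dilutions (30–0.04 μg/ml) were added for 96 h. Giemsa-stained infected macrophages were counted, burden reduction was taken vs untreated controls, and IC50 came from linear regression.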

[7] = test system: intracellular amastigotes of L. donovani strain MHOM-ET-67/L82; assay: Activity against Leishmania donovani intracellular amastigotes in mouse peritoneal macrophages
Summary of the method: as §2

[8] = In vitro cytotoxicity with mouse peritoneal macrophages (Alamar Blue); assay type: cell-based
Method: After 96 h of incubation, the plates were inspected under an inverted microscope to assure sterility. […] The IC50 values were calculated by linear regression from the sigmoidal dose inhibition curves using SoftmaxPro software (Molecular Devices Cooperation, Sunnyvale, CA, USA).

P. falciparum strain K1 = assay: In vitro activity against P. falciparum, serial drug dilution assay; details: for selectivity ratio: rat, Selectivity index: IC50 Cytotoxicity L6/ IC50 P. falciparum
Method: as §1

L6 cells = assay: Cytotoxicity on L6 cells; details: read-out: IC50 Cytotox. L6; L6 cells; means of two independent assays
Method: as §1

[9] = Leishmania donovani, axenic amastigotes, strain MHOM-ET-67/L82, means of two independent assays, read-out: IC50 L. don. axen.
[10] = Trypanosoma cruzi, TULAHUEN, read-out: IC50 T. cruzi
[11] = Trypanosoma brucei, read-out: IC50 T. b. rhod.
[12] = macrophages infected with L. donovani, read-out: IC50 Cytotox. mac.inf.
[13] = Leishmania donovani, Peritoneal macrophage, in Mus musculus, 96 h, read-out: IC50 L. don. intracell
[14] = Leishmania donovani, L. donovani axenic amastigotes, read-out: L. don. axen. IC50
[15] = Trypanosoma cruzi, TULAHUEN, read-out: T. cruzi IC50
[16] = Trypanosoma brucei, read-out: T. b. rhod. IC50
[17] = infected macrophages, read-out: Cytotox. mac.inf. IC50
[18] = Leishmania donovani, Peritoneal macrophage, in Mus musculus, read-out: L. don. intracell IC50
[19] = axenic amastigotes, strain MHOM-ET-67/L82, means of two independent assays, read-out: IC50 L. don. axen.
[20] = Plasmodium falciparum, K1, read-out: IC50 P. falc. K1
[21] = mouse peritoneal macrophages versus L. donovani amastigotes, axenic or intracellular IC50 not specified
[22] = L6 cells, IC50 Cytotox. L6, L6 cells, means of two independent assays
[23] = Plasmodium falciparum, K1, read-out: P. falc. IC50

| Compound | IC50 [1, 9] [µM] | IC50 [2, 10] [µM] | IC50 (in vitro; IC50 Cytotox. L6) [µM] | IC50 [3, 11] [µM] | IC50 at 96 h [4, 12] [µM] | selectivity ratio at 96 h [6] | IC50 [7, 13] [µM] | IC50 at 96 h ([8]; mouse) [µM] | IC50 [2, 15] [µM] | IC50 [3, 16] [µM] | IC50 at 96 h [4, 17] [µM] | IC50 [1, 19] [µM] | IC50 (P. falciparum strain K1; [20]) [µM] | selectivity ratio (P. falciparum strain K1) | further results |
| --- | --- | --- | --- | --- | --- | --- | --- | --- | --- | --- | --- | --- | --- | --- | --- |
| CC1CS(=O)(=O)CCN1/N=C/c1ccc([N+](=O)[O-])o1 (stereo not shown) [Nifurtimox] | 2.76 | 0.19 | 87 | 1.44 | 34.8 | 13 | 20.7 | 15.7 | – | – | – | – | – | – | selectivity ratio ([2]; rat, Selectivity index: IC50 Cytotoxicity L6/ IC50 T. cruzi): 458; Activity against T. b. rhodesiense (in words) [3]: active; selectivity ratio ([3]; Selectivity index: IC50 Cytotoxicity L6/ IC50 T. b. rhodesiense): 60; IC50 [5]: > 34.8 µM |
| N=C(N)c1ccc(OCCCCCOc2ccc(C(=N)N)cc2)cc1 [Pentamidine] | 19.8 | 4.44 | 8.87 | 0.01 | > 29.4 | – | 2.63 | 7.78 | – | – | – | – | – | – | Activity against T. b. rhodesiense (in words) [3]: active; selectivity ratio [3]: 887 |
| COc1cc(NC(C)CCCN)c2ncccc2c1 (stereo not shown) [Primaquine] | – | – | – | – | – | – | – | – | 17.9 | 4.78 | > 38.6 | – | – | – | IC50 [1, 14]: 48.6 µM; IC50 (in vitro): 43.2 µM; IC50 [7, 18]: 28.2 µM; IC50 at 96 h ([8]; peritoneal mouse macrophages, read-out: Cytotox. PMM IC50): 39.7 µM |
| CO[C@H]1/C=C/O[C@@]2(C)Oc3c(C)c(O)c4c(O)c(cc(O)c4c3C2=O)NC(=O)/C(C)=C\C=C\[C@H](C)[C@H](O)[C@@H](C)[C@@H](O)[C@@H](C)[C@H](OC(C)=O)[C@@H]1C [Rifamycin SV (Sodium salt), Rifamycin SV] | < 3 | – | 15.7 | 0.99 | 41.6 | – | > 13.9 | – | 50 | – | – | 1.5 | 0.55 | 29 | selectivity ratio ([3]; L6 cells versus T. b. rhodesiense STIB 900 trypomastigotes): 16; selectivity ratio at 96 h [6, 21]: 28 |
| CCN(CC)CCCCCCNc1cc(OC)cc2c(C)ccnc12 [Sitamaquine] | – | – | – | – | – | – | – | 21.4 | 22 | 7.39 | – | – | 0.08 | 404 | Activity against L. donovani axenic amastigotes (in words) [1]: moderate activity; IC50 [1, 14]: 13.7 µM; IC50 (in vitro; [22]): 32.3 µM; IC50 at 96 h ([4]; mouse peritoneal macrophages infected with L. donovani, infected macrophages, read-out: Cytotox. mac.inf. IC50): > 29.1 µM; Activity against L. donovani intracellular amastigotes (in words) [7]: moderate activity; IC50 [7, 18]: 19.5 µM |
| Clc1ccc(C(Cn2ccnc2)OCc2ccsc2Cl)c(Cl)c1 (stereo not shown) [Tioconazole] | 9.26 | 0.064 | 19.5 | 29.9 | – | – | 13.1 | 51.1 | – | – | – | – | 0.63 | 31 | Activity against P. falciparum (in words) (P. falciparum strain K1; in vitro): active; Activity against L. donovani intracellular amastigotes (in words) [7]: active with low selectivity |
| CCC[C@@]1(CCc2ccccc2)CC(O)=C([C@H](CC)c2cccc(NS(=O)(=O)c3ccc(C(F)(F)F)cn3)c2)C(=O)O1 [Tipranavir] | < 3 | 28.2 | – | 26.4 | – | > 30 | > 49.8 | – | – | – | – | 1.64 | 44.6 | – | IC50 (in vitro; [22]): 53.4 µM; IC50 at 96 h ([4]; mouse peritoneal macrophages infected with L. donovani, macrophages infected with L. donovani, read-out: IC50 Cytotox. mac.inf.): > 50 µM; IC50 [5]: > 49.8 µM |
| Cc1cccc(N(C)C(=S)Oc2ccc3ccccc3c2)c1 [Tolnaftate] | 4.33 | – | – | – | > 97.6 | > 23 | 50.1 | – | 20 | 69.3 | > 97.6 | – | – | – | IC50 (in vitro; Cytotox. L6 IC50): 84.6 µM; IC50 (P. falciparum strain K1; [23]): 19 µM |
| Cc1c(C)c2c(c(C)c1O)CCC(C)(COc1ccc(CC3SC(=O)NC3=O)cc1)O2 (stereo not shown) [Troglitazone] | 4.26 | – | – | – | > 68 | – | > 67.9 | – | 32.6 | 59.3 | > 67.9 | – | – | – | IC50 (in vitro; Cytotox. L6 IC50): 80.6 µM; IC50 (P. falciparum strain K1; [23]): 7.27 µM; selectivity ratio at 96 h [6, 21]: > 16 |
| Bacitracine | – | – | – | – | – | – | – | – | – | – | – | > 70.3 | – | – | IC50 ([2]; read-out: IC50 T. cruzi, strain Tulahuen C4, intracellular amastigotes, means of two independent assays): 47.1 µM; IC50 (L6 cells): 42.2 µM; IC50 ([3]; read-out: IC50 T. b. rhod., strain STIB 900, trypomastigotes, means of two independent assays): > 70.3 µM; IC50 (P. falciparum strain K1; read-out: IC50 P. falc. K1, strain K1, means of two independent assays): 19.8 µM; IC50 ([7]; read-out: IC50 L. don. intracell, intracellular amastigotes in mouse peritoneal macrophages, strain MHOM-ET-67/L82, 96 h): > 21.1 µM |
